According to paper PMC11796312, “Multifunctional, Fluorene‐Based Modulator of Cholinergic and GABAergic Neurotransmission as a Novel Drug Candidate for Palliative Treatment of Alzheimer's Disease” (Angewandte Chemie (International Ed. in English), 2024):

Experiments:
[1] = molecular target: T1, human butyrylcholinesterase (hBuChE) (Homo sapiens, UniProt P06276); test: biochemical; settings: for inhibition at 1 µM: inhibitor concentration 1 μM, read-out: hBuChE % inh.; for IC50: means±SEM of at least three experiments
T1 construct: from human plasma was from Vivonics (Bedford, MA, USA); purchased Vivonics (Bedford, MA, USA); host or cells: human plasma
T1 sequence (P06276 29-602): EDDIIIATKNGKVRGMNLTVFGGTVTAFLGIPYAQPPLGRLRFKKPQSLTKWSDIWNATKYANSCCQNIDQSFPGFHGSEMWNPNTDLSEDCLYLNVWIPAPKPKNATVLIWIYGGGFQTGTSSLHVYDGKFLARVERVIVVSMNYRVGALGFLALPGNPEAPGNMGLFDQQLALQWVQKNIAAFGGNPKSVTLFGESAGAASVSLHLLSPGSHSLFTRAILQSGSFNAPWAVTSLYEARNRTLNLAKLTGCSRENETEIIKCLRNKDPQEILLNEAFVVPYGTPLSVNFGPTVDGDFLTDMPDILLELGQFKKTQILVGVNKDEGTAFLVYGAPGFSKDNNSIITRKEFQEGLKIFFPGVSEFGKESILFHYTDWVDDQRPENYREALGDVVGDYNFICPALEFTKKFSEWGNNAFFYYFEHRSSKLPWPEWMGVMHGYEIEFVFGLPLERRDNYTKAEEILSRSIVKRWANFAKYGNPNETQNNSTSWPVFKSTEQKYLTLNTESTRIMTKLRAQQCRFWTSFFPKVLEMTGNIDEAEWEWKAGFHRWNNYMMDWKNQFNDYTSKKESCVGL

mGAT1 [2] = molecular target: T2, mGAT1 (Mus musculus, UniProt P31648); test: [3H]GABA uptake assay, mGAT1; assay type: cell-based; settings: GABA uptake assay; read-out: mGAT1 IC50
eqBuChE = molecular target: T3, eqBuChE (Equus caballus, UniProt P81908); test: biochemical; settings: means±SEM of at least three experiments
T3 construct: purchased Sigma-Aldrich
T3 sequence (P81908 whole entry): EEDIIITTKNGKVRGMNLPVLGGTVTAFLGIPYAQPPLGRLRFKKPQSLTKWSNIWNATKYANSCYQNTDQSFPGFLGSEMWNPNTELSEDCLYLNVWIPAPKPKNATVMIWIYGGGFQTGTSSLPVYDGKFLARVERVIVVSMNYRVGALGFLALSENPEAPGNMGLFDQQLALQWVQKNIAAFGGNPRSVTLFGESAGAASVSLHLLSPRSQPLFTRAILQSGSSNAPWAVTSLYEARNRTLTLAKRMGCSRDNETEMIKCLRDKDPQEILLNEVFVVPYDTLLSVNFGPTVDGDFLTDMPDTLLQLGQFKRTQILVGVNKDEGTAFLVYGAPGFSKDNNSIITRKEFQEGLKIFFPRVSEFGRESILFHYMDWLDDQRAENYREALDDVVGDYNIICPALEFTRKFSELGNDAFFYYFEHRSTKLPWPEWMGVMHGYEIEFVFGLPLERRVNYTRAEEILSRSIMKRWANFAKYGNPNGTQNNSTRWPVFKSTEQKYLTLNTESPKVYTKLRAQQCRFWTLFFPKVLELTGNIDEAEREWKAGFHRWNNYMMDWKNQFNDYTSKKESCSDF

eeAChE = molecular target: T4, eeAChE (Electrophorus electricus, UniProt O42275); test: Cholinesterase inhibition, Ellman's protocol, eeAChE; assay type: biochemical; settings: read-out: eeAChE % inh.
T4 construct: purchased Sigma-Aldrich
T4 sequence (O42275 24-633): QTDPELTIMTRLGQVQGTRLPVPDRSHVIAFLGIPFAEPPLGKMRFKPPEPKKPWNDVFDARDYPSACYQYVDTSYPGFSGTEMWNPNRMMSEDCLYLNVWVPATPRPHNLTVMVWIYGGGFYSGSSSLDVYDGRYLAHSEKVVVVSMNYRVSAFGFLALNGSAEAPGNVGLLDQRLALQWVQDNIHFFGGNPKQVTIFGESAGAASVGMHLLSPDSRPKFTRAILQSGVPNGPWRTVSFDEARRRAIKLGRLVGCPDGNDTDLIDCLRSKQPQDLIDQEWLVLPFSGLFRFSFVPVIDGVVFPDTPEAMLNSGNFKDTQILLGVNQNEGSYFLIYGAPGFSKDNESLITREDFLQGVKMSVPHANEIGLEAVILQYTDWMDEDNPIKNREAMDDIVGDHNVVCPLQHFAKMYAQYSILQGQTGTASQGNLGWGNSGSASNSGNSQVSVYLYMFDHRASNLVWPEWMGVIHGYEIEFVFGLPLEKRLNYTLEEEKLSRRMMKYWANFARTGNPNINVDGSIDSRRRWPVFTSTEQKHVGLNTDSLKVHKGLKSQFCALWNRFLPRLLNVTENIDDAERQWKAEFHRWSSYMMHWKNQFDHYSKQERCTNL
Method: In vitro pharmacological assays.
The in vitro inhibitory activity toward cholinesterases (eeAChE, eqBuChE,
The target compounds were tested for their inhibitory potency against cholinesterases using
Ellman’s protocol[32] modified for 96-well microplates.
The stock solutions of the
target compounds were prepared in DMSO and diluted with water, giving the desired final
concentrations. The enzymes were prepared as 5 U/mL aqueous stock solutions and diluted
(AChE or BuChE) were added to the reaction mixture in the wells, containing 25 μL of the
target compound (in case of blank samples – water or water/DMSO mixture), 200 μL of 0.1
M phosphate buffer (pH = 8.0) and 20 μL of 5,5'-dithiobis-(2-nitrobenzoic acid) DTNB
All those reagents were preincubated for 5 min at 25 °C for the reactions with the
animal enzymes (eeAChE or eqBuChe) and 36 °C for the human enzyme ( hBuChE) tests. The
enzymatic reaction was initiated by the addition of 20 μL of substrate acetylthiocholine iodide
using the EnSpire multimode microplate reader (PerkinElmer, Waltham, MA, USA). Target
compounds were tested at the screening concentrations of 10 μM or 1 µM for inhibitory
potencies towards animal cholinesterases or human enzyme, respectively. Percent of enzyme
inhibition was calculated based on the formula 100 -(S/B)x100, where S and B were the
respective enzyme activities with and without the test compound, respectively. Compounds
with the enzyme inhibitory activities at 10 μM better than 50% ( eeAChE or eqBuChe) and at
were based on the absorbance measured at seven different inhibitor concentrations, then
percentages of enzymes’ inhibition were plotted against the applied inhibitor concentrations
using nonlinear regression (GraphPad Prism 9; GraphPad Software, San Diego, CA, USA).
All the experiments were performed in
a %inh. at an inhibitor concentration of 10 µM

mGAT2 = molecular target: T5, mGAT2 (Mus musculus, UniProt P31651); test: [3H]GABA uptake assay, mGAT2; assay type: cell-based; settings: GABA uptake assay; read-out: mGAT2 IC50
T5 sequence (P31651 1-614): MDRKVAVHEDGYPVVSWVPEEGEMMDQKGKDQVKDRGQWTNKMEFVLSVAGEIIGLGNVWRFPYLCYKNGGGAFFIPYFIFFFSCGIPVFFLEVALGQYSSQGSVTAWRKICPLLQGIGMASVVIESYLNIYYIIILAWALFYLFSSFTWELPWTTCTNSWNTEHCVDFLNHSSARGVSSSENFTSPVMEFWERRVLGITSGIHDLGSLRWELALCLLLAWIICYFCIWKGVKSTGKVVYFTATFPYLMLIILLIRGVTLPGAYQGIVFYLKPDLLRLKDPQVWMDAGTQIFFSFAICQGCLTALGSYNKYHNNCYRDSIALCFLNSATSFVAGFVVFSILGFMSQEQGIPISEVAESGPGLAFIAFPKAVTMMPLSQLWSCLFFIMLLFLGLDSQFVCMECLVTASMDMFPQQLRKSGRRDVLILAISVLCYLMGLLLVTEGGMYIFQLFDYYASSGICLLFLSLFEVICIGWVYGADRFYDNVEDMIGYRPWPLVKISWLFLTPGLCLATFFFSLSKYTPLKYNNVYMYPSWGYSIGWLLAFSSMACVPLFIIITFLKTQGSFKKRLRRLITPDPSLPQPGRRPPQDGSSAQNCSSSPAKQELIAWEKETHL

mGAT1 [3] = molecular target: T2, mGAT1; test: MS Binding Assay with NO 711 as marker; settings: for Ki: MS Binding Assay, NO 711 marker, read-out: pKi ± SEM toward mGAT1 (converted); for percent of remaining NO711 binding, mGAT1: 100 μM inhibitor
mGAT4 = molecular target: T6, mGAT4 (Mus musculus, UniProt P31650); test: [3H]GABA uptake assay, mGAT4; assay type: cell-based; settings: GABA uptake assay; mGAT4 corresponds to GAT3; read-out: mGAT4 IC50
T6 sequence (P31650 1-627): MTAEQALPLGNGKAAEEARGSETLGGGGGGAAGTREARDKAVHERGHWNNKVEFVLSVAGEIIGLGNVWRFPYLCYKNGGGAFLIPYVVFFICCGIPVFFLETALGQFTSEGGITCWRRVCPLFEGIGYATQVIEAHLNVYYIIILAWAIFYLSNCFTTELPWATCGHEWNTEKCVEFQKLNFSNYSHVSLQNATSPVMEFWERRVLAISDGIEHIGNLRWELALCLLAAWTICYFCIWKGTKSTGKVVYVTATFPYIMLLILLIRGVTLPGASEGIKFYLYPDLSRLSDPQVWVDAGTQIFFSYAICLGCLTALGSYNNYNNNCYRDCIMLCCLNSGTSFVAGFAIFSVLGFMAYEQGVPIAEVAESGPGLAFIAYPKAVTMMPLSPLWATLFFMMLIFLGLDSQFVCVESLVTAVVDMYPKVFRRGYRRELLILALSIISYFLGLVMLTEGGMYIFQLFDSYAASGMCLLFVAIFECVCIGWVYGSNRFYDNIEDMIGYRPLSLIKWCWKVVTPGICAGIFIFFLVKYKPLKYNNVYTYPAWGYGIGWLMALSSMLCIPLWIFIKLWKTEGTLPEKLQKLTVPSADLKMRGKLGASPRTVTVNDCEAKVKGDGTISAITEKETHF

mGAT3 = molecular target: T7, mGAT3 (Mus musculus, UniProt P31649); test: [3H]GABA uptake assay, mGAT3; assay type: cell-based; settings: GABA uptake assay; read-out: mGAT3 IC50
T7 sequence (P31649 1-602): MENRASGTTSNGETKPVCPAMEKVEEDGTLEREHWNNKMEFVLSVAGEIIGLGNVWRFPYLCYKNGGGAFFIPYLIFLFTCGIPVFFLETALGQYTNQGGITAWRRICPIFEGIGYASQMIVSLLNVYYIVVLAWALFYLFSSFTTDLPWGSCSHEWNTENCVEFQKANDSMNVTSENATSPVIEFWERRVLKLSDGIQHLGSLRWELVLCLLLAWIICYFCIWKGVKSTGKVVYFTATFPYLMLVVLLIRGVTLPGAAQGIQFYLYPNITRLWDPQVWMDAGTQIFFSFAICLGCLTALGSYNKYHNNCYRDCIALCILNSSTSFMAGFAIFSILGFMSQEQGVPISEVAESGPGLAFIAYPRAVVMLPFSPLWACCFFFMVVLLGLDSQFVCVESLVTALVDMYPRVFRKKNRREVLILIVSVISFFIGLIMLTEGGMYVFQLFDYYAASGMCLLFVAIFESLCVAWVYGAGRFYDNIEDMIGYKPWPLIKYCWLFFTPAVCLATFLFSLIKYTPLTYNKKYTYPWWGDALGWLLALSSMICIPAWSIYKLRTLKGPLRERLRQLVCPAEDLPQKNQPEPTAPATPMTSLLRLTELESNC

SH-SY5Y cells [4] = test: Intracellular RONS, DCFH-DA probe, SH-SY5Y; assay type: cell-based, human
SIM-A9 cells [5] = test: Intracellular O2•-, DHE probe, SIM-A9; assay type: cell-based, mouse
SIM-A9 cells [6] = test: LC-MS determination of total MDA, SIM-A9; assay type: cell-based, mouse
[7] = tested on: mouse microglial cells SIM-A9; test: MTT cell viability assay, SIM-A9; assay type: cell-based; settings: SIM-A9, 24 h; read-out: IC50 (MTT) ± SEM
Excerpt: (§1) Human neuroblastoma cells SH-SY5Y and mouse microglial cells SIM-A9 were used to evaluate cell viability, intracellular RONS, and malondialdehyde (MDA; CAS No. 542–78-9).
(§2) SH-SY5y cells were cultivated in Dulbecco's modified Eagle's medium (DMEM; Biosera, Nuaille, France) supplemented with 10% fetal bovine serum (Biosera) and 1% penicillin-streptomycin antibiotic solution (Sigma-Aldrich, St. Louis, MO, USA). The culture medium for SIM-A9 cells was further supplemented with donor horse serum (Biosera). The cells were incubated at 37 °C in a CO2 incubator (BINDER CO2 incubator CB 160, Tuttlingen, Germany) and routinely passaged by trypsinization at 75 –85% confluence.
(§3) Colorimetric Cell Viability Assay
(§4) The toxicological indices IC 50 used in the present study were measured utilizing 3-(4,5-dimethylthiazol-2-yl)-2,5-diphenyl-tetrazolium bromide (MTT) reduction assay after (1 picture or pasted object on this page, not shown here)
(§5) 24 h incubation with tested compounds. […]
(§6) incubation, the cultivation medium containing serially diluted substances was aspirated and replaced with a fresh medium containing MTT at a concentration of 0.5 mg/mL and subsequently incubated at 37 °C for 1 h. […] Cell viability was assessed spectrophotometrically by the amount of formazan produced. Absorbance was measured at 570 nm with 650 nm reference wavelength on Spark (Tecan Group Ltd, Switzerland). […]

SIM-A9 cells [8] = test: Intracellular RONS, DCFH-DA probe, SIM-A9; assay type: cell-based, mouse
SH-SY5Y cells [9] = test: Intracellular O2•-, DHE probe, SH-SY5Y; assay type: cell-based, human
[10] = tested on: Human neuroblastoma cells SH-SY5Y; test: MTT cell viability assay, SH-SY5Y; assay type: cell-based; settings: 24 h, read-out: IC50 (MTT) ± SEM
Excerpt: as §1, §2, §3, §4, §5, §6

SH-SY5Y cells [11] = test: LC-MS determination of total MDA, SH-SY5Y; assay type: cell-based, human
[12] = molecular target: T8, human serotonin 5-HT6 receptor (Homo sapiens, UniProt P50406); test: cAMP 5-HT6 functional assay; assay type: cell-based; settings: % of maximal antagonist response (SB258585 10^-5M); 22 nM serotonin
T8 construct: host or cells: 1321N1
T8 sequence (P50406 whole entry): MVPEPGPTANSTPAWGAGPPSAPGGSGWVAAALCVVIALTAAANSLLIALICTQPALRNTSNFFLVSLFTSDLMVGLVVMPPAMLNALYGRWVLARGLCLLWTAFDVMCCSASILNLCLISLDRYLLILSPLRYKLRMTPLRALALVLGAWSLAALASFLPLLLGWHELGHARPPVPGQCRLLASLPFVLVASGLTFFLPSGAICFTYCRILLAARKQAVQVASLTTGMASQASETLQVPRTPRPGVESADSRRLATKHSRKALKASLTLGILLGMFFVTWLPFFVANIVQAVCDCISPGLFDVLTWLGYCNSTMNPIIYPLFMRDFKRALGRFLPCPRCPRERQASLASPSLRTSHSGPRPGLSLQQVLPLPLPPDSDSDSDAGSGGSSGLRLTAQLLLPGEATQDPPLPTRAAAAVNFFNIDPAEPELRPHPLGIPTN
Method: Functional assays for 5-HT6 receptor
Test compounds were dissolved in dimethyl sulfoxide (DMSO) at a concentration of 10 mM.
Serial dilutions were prepared in a 96-well microplate in assay buffer, and 8 concentrations
were tested. For the 5-HT6, adenylyl cyclase activity was monitored using cryopreserved
cells were resuspended in stimulation buffer (HBSS, 5 mM HEPES, 0.5 IBMX, and 0.1%
BSA at pH 7.4) at 2x10^5 cells/ml. The same volume (10 μl) of cell suspension was added to
the tested compounds. Samples were loaded onto a white opaque half-area 96-well
reference agonist for the 5-HT6 receptor. The agonist and antagonist were added
simultaneously. Cell stimulation was performed for 30 minutes at room temperature. After
incubation, cAMP measurements were performed with homogeneous TR-FRET immunoassay
using the LANCE Ultra cAMP kit (PerkinElmer, USA). The volume of 10 μl of EucAMP
Tracer Working Solution and 10 μl of ULight-anti-cAMP Tracer Working Solution were
added, mixed, and incubated for 1 h. The TR-FRET signal was read on an EnVision
microplate reader (PerkinElmer, USA). IC 50 and EC 50 were determined by nonlinear
regression analysis using GraphPad Prism 9.0 software.

COc1cccc(CNC[C@H](O)[C@H](Cc2ccccc2)NC2c3ccccc3-c3ccccc32)c1 [Compound 3]
inhibition at 1 µM [1]: 67.7%
IC50 (mGAT1 [2]): 7.41 ± 0.34 µM
IC50 (eqBuChE): 2.2 ± 0.1 µM
inhibition at 10 µM (eeAChE): < 10%
IC50 (mGAT2): 12 µM
Ki (mGAT1 [3]): 30.9 µM
IC50 (mGAT4): 7.08 ± 0.49 µM

O[C@H](CNCc1ccccc1)[C@H](Cc1ccccc1)NC1c2ccccc2-c2ccccc21 [Compound 1]
IC50 [1]: 0.2 µM
IC50 (mGAT1 [2]): 11 µM
IC50 (mGAT3): 7.08 ± 1.15 µM
IC50 (eqBuChE): 0.63 ± 0.02 µM
inhibition at 10 µM (eeAChE): < 10%
IC50 (mGAT2): 9.77 ± 1.82 µM
Ki (mGAT1 [3]): 49 µM
IC50 (mGAT4): 7.76 ± 1.99 µM

CC(C)(C)c1cccc(CNC[C@@H](O)[C@H](Cc2ccccc2)NC2c3ccccc3-c3ccccc32)c1 [Compound 4]
inhibition at 1 µM [1]: 68%
IC50 (mGAT1 [2]): 14.8 µM
IC50 (mGAT3): 8.91 ± 1.03 µM
IC50 (eqBuChE): 0.69 ± 0.04 µM
inhibition at 10 µM (eeAChE): < 10%
IC50 (mGAT2): 26.3 µM
percent of remaining NO711 binding, mGAT1 (mGAT1 [3]): 91%

CC(C)(C)OO [tBHP]
intracellular RONS, fold vs untreated control (SH-SY5Y cells [4]; conc. = IC50, 1 h): 1.25 fold
intracellular RONS, fold vs untreated control (SH-SY5Y cells [4]; conc. = IC50, 4 h): 1.11 fold
intracellular RONS change (SH-SY5Y cells [4]; conc. = IC50, 24 h): decrease of RONS
intracellular RONS, fold higher (SH-SY5Y cells [4]; conc. = ½ IC50, 1 h): 1.12 fold
intracellular O2•-, times higher (SIM-A9 cells [5]; IC50, 1 h): 1.11 fold
intracellular O2•-, times higher (SIM-A9 cells [5]; IC50, 4 h): 1.10 fold
intracellular O2•-, times higher (SIM-A9 cells [5]; IC50, 24 h): 1.25 fold
intracellular O2•-, fold higher (SIM-A9 cells [5]; ¼ IC50, 24 h): 1.27 fold
intracellular O2•-, times higher (SIM-A9 cells [5]; ½ IC50, 1 h): 1.10 fold
intracellular O2•-, times higher (SIM-A9 cells [5]; ½ IC50, 4 h): 1.10 fold
intracellular O2•-, times higher (SIM-A9 cells [5]; ½ IC50, 24 h): 1.32 fold
MDA level, times higher (SIM-A9 cells [6]; IC50, 4 h): 1.27 fold
MDA level, fold higher (SIM-A9 cells [6]; IC50, 24 h): 1.45 fold
MDA level, times higher (SIM-A9 cells [6]; highest concentration (IC50), 1 h): 1.18 fold
MDA level, times higher (SIM-A9 cells [6]; ¼ IC50, 4 h): 1.16 fold
MDA level, times higher (SIM-A9 cells [6]; ½ IC50, 4 h): 1.18 fold
MDA level, fold higher (SIM-A9 cells [6]; ½ IC50, 24 h): 1.15 fold
IC50 [7]: 60.4 ± 3.54 µM
intracellular RONS, times higher (SIM-A9 cells [8]; conc. = IC50, 1 h): 1.21 fold
intracellular RONS, times lower (SIM-A9 cells [8]; conc. = IC50, 24 h): 1.30 fold
intracellular O2•-, times higher (SH-SY5Y cells [9]; IC50, 1 h): 1.25 fold
intracellular O2•-, times higher (SH-SY5Y cells [9]; IC50, 4 h): 1.23 fold
intracellular O2•-, fold higher (SH-SY5Y cells [9]; IC50, 24 h): 1.11 fold
intracellular O2•-, times higher (SH-SY5Y cells [9]; ¼ IC50, 1 h): 1.10 fold
intracellular O2•-, times higher (SH-SY5Y cells [9]; ¼ IC50, 4 h): 1.10 fold
intracellular O2•-, times higher (SH-SY5Y cells [9]; ½ IC50, 1 h): 1.22 fold
intracellular O2•-, times higher (SH-SY5Y cells [9]; ½ IC50, 4 h): 1.16 fold
intracellular O2•-, fold higher (SH-SY5Y cells [9]; ½ IC50, 24 h): 1.10 fold
IC50 [10]: 19.9 ± 1.35 µM
MDA level, times higher (SH-SY5Y cells [11]; IC50, 1 h): 1.45 fold
MDA level, fold higher (SH-SY5Y cells [11]; IC50, 4 h): 1.45 fold
MDA level, times higher (SH-SY5Y cells [11]; IC50, 24 h): 1.61 fold
MDA level, times higher (SH-SY5Y cells [11]; ¼ IC50, 1 h): 1.23 fold
MDA level, times higher (SH-SY5Y cells [11]; ¼ IC50, 24 h): 1.11 fold
MDA level, times higher (SH-SY5Y cells [11]; ½ IC50, 1 h): 1.18 fold
MDA level, fold higher (SH-SY5Y cells [11]; ½ IC50, 4 h): 1.18 fold
MDA level, times higher (SH-SY5Y cells [11]; ½ IC50, 24 h): 1.20 fold

O[C@@H](CNCC1CCCCC1)[C@H](Cc1ccccc1)NC1c2ccccc2-c2ccccc21 [Compound 5]
inhibition at 1 µM [1]: 76.5%
IC50 (mGAT3): 11.5 µM
IC50 (eqBuChE): 0.96 ± 0.03 µM
inhibition at 10 µM (eeAChE): 19.9%
IC50 (mGAT2): 10.7 µM
percent of remaining NO711 binding, mGAT1 (mGAT1 [3]): 72%

COc1ccc(NS(=O)(=O)c2ccc(I)cc2)cc1N1CCN(C)CC1 [SB258585, reference compound]
5-HT6 antagonist mode E max % [12]: 100%

COc1ccccc1CNC[C@H](O)[C@H](Cc1ccccc1)NC1c2ccccc2-c2ccccc21 [Compound 2]
IC50 [1]: 0.27 ± 0.01 µM
IC50 (mGAT1 [2]): 6.31 ± 1.02 µM
IC50 (eqBuChE): 0.28 ± 0.01 µM
inhibition at 10 µM (eeAChE): < 10%
IC50 (mGAT2): 13.2 µM
Ki (mGAT1 [3]): 33.9 µM
IC50 (mGAT4): 6.17 ± 0.57 µM
